Target: T1, Interstitial collagenase (Homo sapiens, UniProt P03956)
T1 sequence (P03956 whole entry): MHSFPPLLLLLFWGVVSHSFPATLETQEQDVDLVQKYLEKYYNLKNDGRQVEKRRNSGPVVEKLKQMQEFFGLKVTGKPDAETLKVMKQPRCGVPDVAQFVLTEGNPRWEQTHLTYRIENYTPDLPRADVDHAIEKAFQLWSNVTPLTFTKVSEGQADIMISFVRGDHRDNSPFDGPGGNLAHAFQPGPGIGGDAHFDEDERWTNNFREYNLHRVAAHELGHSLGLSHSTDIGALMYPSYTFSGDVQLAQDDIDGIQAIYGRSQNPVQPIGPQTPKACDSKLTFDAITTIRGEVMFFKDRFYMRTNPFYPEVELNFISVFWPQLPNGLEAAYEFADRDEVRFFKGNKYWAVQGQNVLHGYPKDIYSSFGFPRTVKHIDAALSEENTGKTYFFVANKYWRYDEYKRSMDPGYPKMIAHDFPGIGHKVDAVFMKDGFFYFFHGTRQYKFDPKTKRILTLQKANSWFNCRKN
Test: Inhibitory activity was tested against human collagenase (MMP-1)

Compound | IC50 [nM]
CNC(=O)[C@H](Cc1ccc(OC)cc1)NC(=O)C(Cc1ccc(OC)cc1S)CC(C)C (stereo not given in full) | 140
CNC(=O)[C@H](Cc1ccc(OC)cc1)NC(=O)[C@H](Cc1ccccc1S)CC(C)C | 55
CNC(=O)[C@H](Cc1ccc(OC)cc1)NC(=O)[C@@H](Cc1cccc(OC)c1S)CC(C)C | 220
CNC(=O)[C@H](Cc1ccc(OC)cc1)NC(=O)C(Cc1c(S)cccc1Cl)CC(C)C (stereo not given in full) | 320
CC(C)CC(Cc1ccccc1S)C(=O)NC1CCCCCCCCCCNC1=O (stereo not given) | > 100000
CNC(=O)[C@H](Cc1ccc(OC)cc1)NC(=O)[C@H](CC(C)C)[C@H](C)S | 17
CNC(=O)[C@H](Cc1ccc(OC)cc1)NC(=O)C(Cc1ccc(Cl)cc1S)CC(C)C (stereo not given in full) | 230
CNC(=O)[C@H](Cc1ccccc1)NC(=O)[C@H](Cc1ccccc1S)CC(C)C | 30
CNC(=O)[C@H](Cc1ccc(OC)cc1)NC(=O)C(Cc1cccc(C(F)(F)F)c1S)CC(C)C (stereo not given in full) | 290
CNC(=O)[C@H](Cc1ccc(OC)cc1)NC(=O)[C@H](Cc1cccc(OC)c1S)CC(C)C | 160
CNC(=O)[C@H](Cc1ccc(OC)cc1)NC(=O)[C@H](CC(C)C)[C@@H](S)c1ccccc1 | 270
CNC(=O)[C@H](Cc1ccc(OC)cc1)NC(=O)C(Cc1ccc[nH]c1=S)CC(C)C (stereo not given in full) | > 100000
CNC(=O)[C@H](Cc1ccccc1)NC(=O)[C@@H](Cc1ccccc1S)CC(C)C | 1100
CNC(=O)[C@H](Cc1ccc(OC)cc1)NC(=O)[C@@H](Cc1ccccc1S)CC(C)C | 340
CNC(=O)[C@H](Cc1ccc(OC)cc1)NC(=O)C(Cc1cccc(Cl)c1S)CC(C)C (stereo not given in full) | 330

— ChEMBL document CHEMBL1152014, “Synthesis of thiophenol derivatives as inhibitors of human collagenase” (Bioorg Med Chem Lett, 1995)
